Experimental data taken from US12486253B2, “Therapeutics for the degradation of mutant BRAF” (C4 THERAPEUTICS, INC., priority 2021, dated 2025).
Where two headings read alike, the source gives them in different places.

Target: BRAF V600E (Homo sapiens, UniProt P15056, V600E)
Experiment: HiBiT cellular BRAF^V600E degradation assay
Type: cell-based
Details: for DC50: concentration at which 50% of total cellular BRAF^V600E is degraded; for Emax: read-out: HiBit 24 h Emax
[1] = A375.10 cells, 24 h, residual protein remaining in the cell

Chain of BRAF V600E (P15056 whole entry V600E): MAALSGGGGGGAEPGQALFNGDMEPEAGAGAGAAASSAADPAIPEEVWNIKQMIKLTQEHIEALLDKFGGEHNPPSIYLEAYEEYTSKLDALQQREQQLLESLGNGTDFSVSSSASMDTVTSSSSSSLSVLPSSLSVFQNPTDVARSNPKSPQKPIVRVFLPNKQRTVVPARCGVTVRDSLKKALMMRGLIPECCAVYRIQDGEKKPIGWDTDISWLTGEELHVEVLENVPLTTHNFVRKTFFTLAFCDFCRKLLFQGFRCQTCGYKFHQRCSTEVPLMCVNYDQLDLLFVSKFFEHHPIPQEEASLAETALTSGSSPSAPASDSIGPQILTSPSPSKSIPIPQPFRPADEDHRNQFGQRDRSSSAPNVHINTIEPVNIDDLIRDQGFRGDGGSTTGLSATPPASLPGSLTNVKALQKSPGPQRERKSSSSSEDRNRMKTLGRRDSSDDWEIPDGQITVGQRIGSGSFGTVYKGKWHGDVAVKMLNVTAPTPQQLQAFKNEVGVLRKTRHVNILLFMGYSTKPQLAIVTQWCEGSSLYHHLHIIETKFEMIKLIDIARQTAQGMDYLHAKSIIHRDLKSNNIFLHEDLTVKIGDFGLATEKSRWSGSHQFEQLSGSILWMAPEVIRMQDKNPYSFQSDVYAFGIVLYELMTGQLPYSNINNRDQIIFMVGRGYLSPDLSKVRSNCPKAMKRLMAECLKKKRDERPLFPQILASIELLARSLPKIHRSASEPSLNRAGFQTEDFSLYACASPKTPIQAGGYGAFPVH

CCN(C)S(=O)(=O)Nc1ccc(F)c(Oc2ccc3ncn([C@H]4COC5(CCN(C(=O)CN6CCC(c7ccc(NC8CCC(=O)NC8=O)c(F)c7)CC6)CC5)C4)c(=O)c3c2)c1C#N (stereo partly drawn) [Example 54, (3R)-3-[6-[2-cyano-3-[[ethyl(methyl)sulfamoyl]amino]-6-fluorophenoxy]-4-oxoquinazolin-3-yl]-8-[2-[4-[4-[(2,6-dioxopiperidin-3-yl)amino]-3-fluorophenyl]piperidin-1-yl]acetyl]-1-oxa-8-azaspiro[4.5]decane]
DC50 (A375.10 cells, 24 h): 15.4 nM | Emax: 12.1%

CCN(C)S(=O)(=O)Nc1ccc(F)c(Oc2ccc3ncn([C@H]4CCC5(CCN(C(=O)CN6CCN(c7ccc(C8CCC(=O)NC8=O)cc7F)CC6)CC5)C4)c(=O)c3c2)c1C#N (stereo partly drawn) [Example 55, 6-[2-cyano-3-[[ethyl(methyl)sulfamoyl]amino]-6-fluorophenoxy]-3-[(3S)-8-[2-[4-[4-(2,6-dioxopiperidin-3-yl)-2-fluorophenyl]piperazin-1-yl]acetyl]-8-azaspiro[4.5]decan-3-yl]-4-oxoquinazoline]
DC50 (A375.10 cells, 24 h): 30 nM | Emax [1]: 14.7%

N#Cc1c(NS(=O)(=O)C2CCCC2)ccc(F)c1Oc1ccc2ncn([C@H]3COC4(CCN(C(=O)CN5CCC(c6ccc(NC7CCC(=O)NC7=O)cc6F)CC5)CC4)C3)c(=O)c2c1 (stereo partly drawn) [Example 56, N-[2-cyano-3-[3-[(3R)-8-[2-[4-[4-[(2,6-dioxopiperidin-3-yl)amino]-2-fluorophenyl]piperidin-1-yl]acetyl]-1-oxa-8-azaspiro[4.5]decan-3-yl]-4-oxoquinazolin-6-yl]oxy-4-fluorophenyl]cyclopentanesulfonamide]
DC50 (A375.10 cells, 24 h): 31.6 nM | Emax [1]: 11.6%

CCN(C)S(=O)(=O)Nc1ccc(F)c(Oc2ccc3ncn(C4CCC5(CCN(C(=O)CN6CCC(c7ccc(NC8CCC(=O)NC8=O)cc7F)CC6)CC5)C4)c(=O)c3c2C)c1C#N (stereo not drawn) [Example 57, 6-[2-cyano-3-[[ethyl(methyl)sulfamoyl]amino]-6-fluorophenoxy]-3-[8-[2-[4-[4-[(2,6-dioxopiperidin-3-yl)amino]-2-fluorophenyl]piperidin-1-yl]acetyl]-8-azaspiro[4.5]decan-3-yl]-5-methyl-4-oxoquinazoline]
DC50 (A375.10 cells, 24 h): 20.9 nM | Emax [1]: 11.5%

CCN(C)S(=O)(=O)Nc1ccc(F)c(Oc2ccc3ncn([C@H]4COC5(CCN(C(=O)CN6CCC(c7ccc(NC8CCC(=O)NC8=O)cc7F)C(F)(F)C6)CC5)C4)c(=O)c3c2)c1C#N (stereo partly drawn) [Example 58, (3R)-3-[6-[2-cyano-3-[[ethyl(methyl)sulfamoyl]amino]-6-fluorophenoxy]-4-oxoquinazolin-3-yl]-8-[2-[4-[4-[(2,6-dioxopiperidin-3-yl)amino]-2-fluorophenyl]-3,3-difluoropiperidin-1-yl]acetyl]-1-oxa-8-azaspiro[4.5]decane]
DC50 (A375.10 cells, 24 h): 45.3 nM | Emax [1]: 13.9%

CCN(C)S(=O)(=O)Nc1ccc(F)c(Oc2ccc3ncn(C4COC5(CCN(C(=O)CN6CCC(c7ccc(NC8CCC(=O)NC8=O)cc7F)CC6)CC5)C4)c(=O)c3c2C)c1C#N (stereo not drawn) [Example 59, 3-[6-[2-cyano-3-[[ethyl(methyl)sulfamoyl]amino]-6-fluorophenoxy]-5-methyl-4-oxoquinazolin-3-yl]-8-[2-[4-[4-[(2,6-dioxopiperidin-3-yl)amino]-2-fluorophenyl]piperidin-1-yl]acetyl]-1-oxa-8-azaspiro[4.5]decane]
DC50 (A375.10 cells, 24 h): 56 nM | Emax [1]: 10.4%

CCN(C)S(=O)(=O)Nc1ccc(F)c(Oc2ccc3ncn([C@H]4COC5(CCN(C(=O)CN6CCN(c7ccc(C8CCC(=O)NC8=O)cc7F)CC6)CC5)C4)c(=O)c3c2)c1C#N (stereo partly drawn) [Example 60, (3R)-3-[6-[2-cyano-3-[[ethyl(methyl)sulfamoyl]amino]-6-fluorophenoxy]-4-oxoquinazolin-3-yl]-8-[2-[4-[4-(2,6-dioxopiperidin-3-yl)-2-fluorophenyl]piperazin-1-yl]acetyl]-1-oxa-8-azaspiro[4.5]decane]
DC50 (A375.10 cells, 24 h): 40.5 nM | Emax [1]: 13%

CC(C)S(=O)(=O)Nc1ccc(F)c(Oc2ccc3ncn([C@H]4COC5(CCN(C(=O)CN6CCC(c7ccc(NC8CCC(=O)NC8=O)cc7F)CC6)CC5)C4)c(=O)c3c2)c1C#N (stereo partly drawn) [Example 61, N-[2-cyano-3-[3-[(3R)-8-[2-[4-[4-[(2,6-dioxopiperidin-3-yl)amino]-2-fluorophenyl]piperidin-1-yl]acetyl]-1-oxa-8-azaspiro[4.5]decan-3-yl]-4-oxoquinazolin-6-yl]oxy-4-fluorophenyl]propane-2-sulfonamide]
DC50 (A375.10 cells, 24 h): 21.1 nM | Emax [1]: 8.44%

CCN(C)S(=O)(=O)Nc1ccc(F)c(Oc2ccc3ncn([C@H]4CCC5(CCN(C(=O)CN6CCC(c7ccc(NC8CCC(=O)NC8=O)c(F)c7F)CC6)CC5)C4)c(=O)c3c2)c1C#N (stereo partly drawn) [Example 63, 6-[2-cyano-3-[[ethyl(methyl)sulfamoyl]amino]-6-fluorophenoxy]-3-[(3S)-8-[2-[4-[4-[(2,6-dioxopiperidin-3-yl)amino]-2,3-difluorophenyl]piperidin-1-yl]acetyl]-8-azaspiro[4.5]decan-3-yl]-4-oxoquinazoline]
DC50 (A375.10 cells, 24 h): 20.4 nM | Emax: 9.52%

CCN(C)S(=O)(=O)Nc1ccc(F)c(Oc2ccc3ncn([C@H]4COC5(CCN(C(=O)CN6CCC(c7ccc(C8CCC(=O)NC8=O)cc7F)C(F)(F)C6)CC5)C4)c(=O)c3c2)c1C#N (stereo partly drawn) [Example 65, (3R)-3-[6-[2-cyano-3-[[ethyl(methyl)sulfamoyl]amino]-6-fluorophenoxy]-4-oxoquinazolin-3-yl]-8-[2-[4-[4-(2,6-dioxopiperidin-3-yl)-2-fluorophenyl]-3,3-difluoropiperidin-1-yl]acetyl]-1-oxa-8-azaspiro[4.5]decane]
DC50 (A375.10 cells, 24 h): 9.48 nM | Emax [1]: 15.4%

CCN(C)S(=O)(=O)Nc1ccc(F)c(Oc2ccc3ncn([C@H]4CCC5(CCN(C(=O)CN6CCC(c7ccc(C8CCC(=O)NC8=O)cc7F)C(F)(F)C6)CC5)C4)c(=O)c3c2)c1C#N (stereo partly drawn) [Example 66, 6-[2-cyano-3-[[ethyl(methyl)sulfamoyl]amino]-6-fluorophenoxy]-3-[(3S)-8-[2-[4-[4-(2,6-dioxopiperidin-3-yl)-2-fluorophenyl]-3,3-difluoropiperidin-1-yl]acetyl]-8-azaspiro [4.5]decan-3-yl]-4-oxoquinazoline]
DC50 (A375.10 cells, 24 h): 11.3 nM | Emax [1]: 10.2%

CCN(C)S(=O)(=O)Nc1ccc(F)c(Oc2ccc3ncn([C@H]4CCC5(CCN(C(=O)CN6CCC(c7cc(F)c(NC8CCC(=O)NC8=O)cc7F)CC6)CC5)C4)c(=O)c3c2)c1C#N (stereo partly drawn) [Example 67, 6-[2-cyano-3-[[ethyl(methyl)sulfamoyl]amino]-6-fluorophenoxy]-3-[(3S)-8-[2-[4-[4-[(2,6-dioxopiperidin-3-yl)amino]-2,5-difluorophenyl]piperidin-1-yl]acetyl]-8-azaspiro[4.5]decan-3-yl]-4-oxoquinazoline]
DC50 (A375.10 cells, 24 h): 5.31 nM | Emax: 8.05%

CCN(C)S(=O)(=O)Nc1ccc(F)c(Oc2ccc3ncn(C4COC5(CCN(C(=O)CN6CCC(c7ccc(NC8CCC(=O)NC8=O)cc7F)CC6)CC5)C4)c(=O)c3c2Br)c1C#N (stereo not drawn) [Example 68, 3-[5-bromo-6-[2-cyano-3-[[ethyl(methyl)sulfamoyl]amino]-6-fluorophenoxy]-4-oxoquinazolin-3-yl]-8-[2-[4-[4-[(2,6-dioxopiperidin-3-yl)amino]-2-fluorophenyl]piperidin-1-yl]acetyl]-1-oxa-8-azaspiro[4.5]decane]
DC50 (A375.10 cells, 24 h): 8.77 nM | Emax [1]: 8.05%

CCN(C)S(=O)(=O)Nc1ccc(F)c(Oc2ccc3ncn(C4CCC5(CCN(C(=O)CN6CCC(c7ccc(NC8CCC(=O)NC8=O)cc7F)CC6)CC5)C4)c(=O)c3c2Br)c1C#N (stereo not drawn) [Example 69, 5-bromo-6-[2-cyano-3-[[ethyl(methyl)sulfamoyl]amino]-6-fluorophenoxy]-3-[8-[2-[4-[4-[(2,6-dioxopiperidin-3-yl)amino]-2-fluorophenyl]piperidin-1-yl]acetyl]-8-azaspiro[4.5]decan-3-yl]-4-oxoquinazoline]
DC50 (A375.10 cells, 24 h): 6.63 nM | Emax [1]: 9.52%

CCN(C)S(=O)(=O)Nc1ccc(F)c(Oc2ccc3ncn(C4CCC5(CCN(C(=O)CN6CCC(c7ccc(NC8CCC(=O)NC8=O)cc7F)CC6)CC5)C4)c(=O)c3c2Cl)c1C#N (stereo not drawn) [Example 70, 5-chloro-6-[2-cyano-3-[[ethyl(methyl)sulfamoyl]amino]-6-fluorophenoxy]-3-[8-[2-[4-[4-[(2,6-dioxopiperidin-3-yl)amino]-2-fluorophenyl]piperidin-1-yl]acetyl]-8-azaspiro[4.5]decan-3-yl]-4-oxoquinazoline]
DC50 (A375.10 cells, 24 h): 27.7 nM | Emax [1]: 10.7%

CCN(C)S(=O)(=O)Nc1ccc(F)c(Oc2ccc3ncn(C4COC5(CCN(C(=O)CN6CCC(c7ccc(NC8CCC(=O)NC8=O)cc7F)CC6)CC5)C4)c(=O)c3c2Cl)c1C#N (stereo not drawn) [Example 71, 3-[5-chloro-6-[2-cyano-3-[[ethyl(methyl)sulfamoyl]amino]-6-fluorophenoxy]-4-oxoquinazolin-3-yl]-8-[2-[4-[4-[(2,6-dioxopiperidin-3-yl)amino]-2-fluorophenyl]piperidin-1-yl]acetyl]-1-oxa-8-azaspiro[4.5]decane]
DC50 (A375.10 cells, 24 h): 37.6 nM | Emax [1]: 10.5%

CCN(C)S(=O)(=O)Nc1ccc(F)c(Oc2ccc3ncn([C@H]4COC5(CCN(C(=O)CN6CCC(c7ccc(NC8CCC(=O)NC8=O)cc7F)CC6)CC5)C4)c(=O)c3c2F)c1C#N (stereo partly drawn) [Example 72, (3R)-3-[6-[2-cyano-3-[[ethyl(methyl)sulfamoyl]amino]-6-fluorophenoxy]-5-fluoro-4-oxoquinazolin-3-yl]-8-[2-[4-[4-[(2,6-dioxopiperidin-3-yl)amino]-2-fluorophenyl]piperidin-1-yl]acetyl]-1-oxa-8-azaspiro[4.5]decane]
DC50 (A375.10 cells, 24 h): 39.9 nM | Emax [1]: 8.63%

CCN(C)S(=O)(=O)Nc1ccc(F)c(Oc2ccc3ncn([C@@H]4COC5(CCN(C(=O)CN6CCC(c7ccc(NC8CCC(=O)NC8=O)cc7F)CC6)CC5)C4)c(=O)c3c2Br)c1C#N (stereo partly drawn) [Example 74, (3S)-3-[5-bromo-6-[2-cyano-3-[[ethyl(methyl)sulfamoyl]amino]-6-fluorophenoxy]-4-oxoquinazolin-3-yl]-8-[2-[4-[4-[(2,6-dioxopiperidin-3-yl)amino]-2-fluorophenyl]piperidin-1-yl]acetyl]-1-oxa-8-azaspiro[4.5]decane]
DC50 (A375.10 cells, 24 h): 31.5 nM | Emax [1]: 11.6%
